Experimental data: ChEMBL document CHEMBL4152259, “Benzoxazinone-containing 3,5-dimethylisoxazole derivatives as BET bromodomain inhibitors for treatment of castration-resistant prostate cancer” (Eur J Med Chem, 2018)

What was measured:
[1] = target: T1, Bromodomain-containing protein 4 (Homo sapiens, UniProt O60885); assay: Inhibition of His6-tagged human BRD4 bromodomain-1 (N44 to E168 residues) expressed in Escherichia coli BL21(DE3) using biotinylated-H4KAc4 as substrate by AlphaScreen assay
[2] = target: T1, Bromodomain-containing protein 4
Description: Binding affinity to His6-tagged human BRD4 bromodomain-1 (N44 to E168 residues) expressed in Escherichia coli BL21(DE3) assessed as change in melting temperature at 200 uM by SYPRO orange dye based fluorescence assay

VCaP = assay: Antiproliferative activity against human VCaP cells treated at 12 hrs post cell seeding measured at 72 to 144 hrs post cell seeding by Cell-Titer Glo assay; format: functional, cell-based
LNCaP C4-2B = assay: Antiproliferative activity against human C4-2B cells treated at 12 hrs post cell seeding measured at 72 to 144 hrs post cell seeding by Cell-Titer Glo assay; format: functional, cell-based
LNCaP [3] = assay: Antiproliferative activity against human LNCAP cells treated at 12 hrs post cell seeding measured at 72 to 144 hrs post cell seeding by Cell-Titer Glo assay; format: functional, cell-based
CWR22R = assay: Antiproliferative activity against human 22Rv1 cells treated at 12 hrs post cell seeding measured at 72 to 144 hrs post cell seeding by Cell-Titer Glo assay; format: functional, cell-based
LNCaP [4] = assay: Antiproliferative activity against human LNCAP cells; format: functional, cell-based

Structure (SMILES) | IC50 [1] [nM] | ΔTm [2] [°C] | also measured
Cc1noc(C)c1-c1ccc2c(c1)OC(c1cccc(F)c1)C(=O)N2 (stereo not given) | 620 | 7.5 | 
CNC(=O)c1ccc(N2C(=S)N(c3ccc(C#N)c(C(F)(F)F)c3)C(=O)C2(C)C)cc1F [ENZALUTAMIDE] |  |  | IC50 (VCaP): > 30000 nM; IC50 (LNCaP C4-2B): 20800 nM
Cc1noc(C)c1-c1ccc2c(c1)OC(c1ccccc1C(F)(F)F)C(=O)N2 (stereo not given) | 1140 | 5.4 | 
Cc1noc(C)c1-c1ccc2c(c1)OC(c1cccc(Cl)c1)C(=O)N2 (stereo not given) | 510 | 4.8 | 
Cc1noc(C)c1-c1ccc2c(c1)OC(c1ccc(Cl)c(Cl)c1)C(=O)N2 (stereo not given) | 4250 | 5.7 | 
CCCCC1Oc2cc(-c3c(C)noc3C)ccc2NC1=O (stereo not given) | 200 | 7.8 | IC50 (LNCaP [3]): 820 nM; IC50 (VCaP): 1140 nM; IC50 (LNCaP C4-2B): 590 nM; IC50 (CWR22R): 4520 nM
Cc1noc(C)c1-c1ccc2c(c1)O[C@H](CC1CC1)C(=O)N2CCN(C)C | 860 | 8.4 | 
CSCCC1Oc2cc(-c3c(C)noc3C)ccc2NC1=O (stereo not given) | 530 | 6.9 | 
Cc1noc(C)c1-c1ccc2c(c1)OC(Cc1ccc(Cl)cc1)C(=O)N2 (stereo not given) | > 20000 | 2.1 | 
Cc1noc(C)c1-c1ccc2c(c1)O[C@H](Cc1ccccc1)C(=O)N2 | 6070 | 3.2 | 
Cc1noc(C)c1-c1ccc2c(c1)OC(C(C)(C)C)C(=O)N2 (stereo not given) | 270 | 7.9 | 
Cc1noc(C)c1-c1ccc2c(c1)OC(CC1CC1)C(=O)N2 (stereo not given) | 400 | 8.7 | IC50 (LNCaP [3]): 1030 nM; IC50 (VCaP): 410 nM; IC50 (LNCaP C4-2B): 590 nM; IC50 (CWR22R): 1940 nM
Cc1noc(C)c1-c1ccc2c(c1)OC(C(C)C)C(=O)N2 (stereo not given) | 1170 | 6.9 | 
CCCC1Oc2cc(-c3c(C)noc3C)ccc2NC1=O (stereo not given) | 290 | 8.1 | 
Cc1noc(C)c1-c1ccc2c(c1)OC(c1ccc(Cl)cc1)C(=O)N2 (stereo not given) | 880 | 5.4 | 
Cc1noc(C)c1-c1ccc2c(c1)OC(CC1CCCC1)C(=O)N2 (stereo not given) | 290 | 7.8 | 
CCNC(=O)C[C@@H]1N=C(c2ccc(Cl)cc2)c2cc(OC)ccc2-n2c(C)nnc21 [MOLIBRESIB] |  |  | IC50 (LNCaP [4]): 356 nM
Cc1noc(C)c1-c1ccc2c(c1)O[C@H](CC1CC1)C(=O)N2CC(=O)O | 2120 | 6.9 | 
Cc1noc(C)c1-c1ccc2c(c1)OC(c1cccc(C(F)(F)F)c1)C(=O)N2 (stereo not given) | 2270 | 3.3 | 
Cc1noc(C)c1-c1ccc2c(c1)O[C@H](CC1CC1)C(=O)N2C | 520 | 7.7 | 
Cc1noc(C)c1-c1ccc2c(c1)OC(Cc1ccccc1)C(=O)N2 (stereo not given) | > 20000 | 3 | 
Cc1noc(C)c1-c1ccc2c(c1)OC(CC(C)C)C(=O)N2 (stereo not given) | 180 | 9.4 | IC50 (LNCaP [3]): 570 nM; IC50 (VCaP): 380 nM; IC50 (LNCaP C4-2B): 540 nM; IC50 (CWR22R): 6500 nM
Cc1noc(C)c1-c1ccc2c(c1)OC(c1ccccc1Cl)C(=O)N2 (stereo not given) | 490 | 5.1 | 
Cc1noc(C)c1-c1ccc2c(c1)O[C@@H](CC1CC1)C(=O)N2 | 3540 | 3.9 | 
COC(=O)CN1C(=O)[C@@H](CC2CC2)Oc2cc(-c3c(C)noc3C)ccc21 | 360 | 8.9 | 
Cc1noc(C)c1-c1ccc2c(c1)OC(CC1CCCCC1)C(=O)N2 (stereo not given) | 1170 | 6.9 | 
Cc1noc(C)c1-c1ccc2c(c1)OC(CC1CCC1)C(=O)N2 (stereo not given) | 200 | 8.1 | 
Cc1noc(C)c1-c1ccc2c(c1)OC(c1cc(Cl)cc(Cl)c1)C(=O)N2 (stereo not given) | 1330 | 6.3 | 
Cc1noc(C)c1-c1ccc2c(c1)O[C@H](CC1CC1)C(=O)N2CC(=O)N(C)C | 3640 | 6.9 | 
Cc1sc2c(c1C)C(c1ccc(Cl)cc1)=N[C@@H](CC(=O)Nc1ccc(O)cc1)c1nnc(C)n1-2 [BIRABRESIB] |  |  | IC50 (LNCaP [4]): 111 nM
